The source of these data is patent US9487813B2, “Antifungal target” (F2G LTD, priority 2009, dated 2016).

One assay has as its target T1, A. fumigatus PPTB (Aspergillus fumigatus, UniProt Q4W9R0).
T1 construct: NusA; His tag (vector-encoded, inferred from Ni-NTA purification); made in house; host or cells: E. coli BL21 (DE3)
T1 sequence (Q4W9R0 1-153): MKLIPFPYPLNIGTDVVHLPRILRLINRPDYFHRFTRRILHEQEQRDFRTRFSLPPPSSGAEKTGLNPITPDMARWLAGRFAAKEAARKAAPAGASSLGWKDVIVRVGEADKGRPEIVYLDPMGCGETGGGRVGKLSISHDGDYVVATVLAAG
Kind of assay: fluorescence polarisation PPTB assay / high-throughput screen (CoA-Bodipy TMR transfer to ACP). It counts as biochemical. The conditions noted are these: IC50 for CoA, assay carried out using unlabelled coenzyme A. The protocol: High-throughput fluorescent polarization screens for PPTB inhibitors were carried out in black, flat-bottom 384 well plates using the following equipment: Thermo Labsystems Multidrop 384 machine (Multidrop® 384) with dispensing cassette and plate adapter; Tecan Genesis Freedom and Tecan Te—Mo automated liquid handling robot with 235 μl tip head, plus appropriate PC/base unit/software; PerkinElmer Minitrak automated liquid handling robot with 235 μl tip head plus appropriate PC/base unit/software; and PerkinElmer Fusion-Alpha-FP HT plate reading spectrophotometer plus appropriate FP filters (Excitation filter 540 nm; Emission filter 580 nm, both filters with 20 nm bandwidth).
Buffer A: 62.5 mM Bis-Tris buffer (pH 6.75), 12.5 mM MgCl2. The final concentrations in the assay were 50 mM Bis-Tris and 10 mM MgCl2.
CoA-Bodipy TMR-ACP mix: 11.6 ml ACP (3.421 mg/ml) plus 1854.7 μl CoA-Bodipy TMR stock (see Section 3.2 above) was made up to 529.9 ml with Buffer A at 4° C.
PPTB enzyme: PPTB enzyme was typically used at 50 to 100 ng total protein/well; enzyme was used at a concentration that gave reaction linearity with respect to both time and protein concentration. This had to be determined for each enzyme batch. […]
Assays were carried out in black, flat-bottomed 384-well plates. […] The reaction was terminated by the addition of 25 μl Stop Reagent, after which plates were read in a spectrophotometer. […]
In general terms: Fluorescence polarisation rises when a labelled molecule tumbles more slowly, as on binding a larger partner.

In another assay the target is recombinant PPTB (Aspergillus fumigatus, UniProt Q4W9R0). Conditions: in the presence of magnesium ions and CoA-Bodipy TMR.

Excerpt for recombinant PPTB: In the present work PPTB assays used a fluorescently-labelled coenzyme A molecule (CoA-Bodipy TMR), such that PPTB activity transferred the label onto the ACP. The PPTB reaction could therefore be followed by separating the products of the PPTB reaction on an SDS-PAGE gel and illuminating with UV light to see whether the ACP band had become fluorescent. For the high-throughput screen, the PPTB assays used a fluorescence polarisation approach. This measures changes in the orientation of plane-polarized light brought about by fluorophores that undergo significant molecular motion during their fluorescence lifetime. […] The reduction in rotation causes a reduction in the ability of the Bodipy TMR molecule to depolarise plane-polarised light, which can be measured.
Further experiments were carried out using fluorescence polarization to optimise the PPTB assay for high-throughput screening.

Regarding `CC(C)(COP(=O)(O)OP(=O)(O)OC[C@H]1O[C@@H](n2cnc3c(N)ncnc32)[C@H](O)[C@@H]1OP(=O)(O)O)[C@@H](O)C(=O)NCCC(=O)NCCS` [CoA, coenzyme A], the IC50 against A. fumigatus PPTB (plates read after 105 hours) is 5.9 µM; on A. fumigatus PPTB (plates read on day one), 6.02 µM. Turning to `O=C(O)CN(CCN(CC(=O)O)CC(=O)O)CC(=O)O` [EDTA], the “effect on the labelling reaction of ACP” value at recombinant PPTB is listed as “inhibited”.

By IC50 is commonly meant the concentration at which inhibition is half-maximal. Read a low IC50 as greater potency.
